Laboratory results taken from patent publication US20180312473A1, “PHENAZINE DERIVATIVES AS ANTIMICROBIAL AGENTS” (priority 2015, published 2018).
Converted amounts (≈) assume the structure as drawn. “And” between values parts separate entries of the source, which are not always exact repeats. Identical values can stand only once. Like-named read-outs stand apart in the source and are kept apart here.

Experiments:
[1] = tested on: Staphylococcus aureus and S. epidermidis; conditions: cited from earlier work
[2] = tested on: VRE (E. faecium ATCC 700221) planktonic cells and biofilms; experiment: Calgary Biofilm Device (CBD) assay, MBC/MBEC; format: cell-based, Enterococcus faecium
[3] = tested on: MRSE (S. epidermidis ATCC 35984) planktonic cells and biofilms; experiment: Calgary Biofilm Device (CBD) assay, MBC/MBEC; format: cell-based, Staphylococcus epidermidis
[4] = tested on: S. aureus clinical isolate SA 147; experiment: MIC assay (broth microdilution, CLSI); conditions: Staphylococcus aureus, read-out: MIC, SA 147
[5] = tested on: human red blood cells; experiment: Hemolysis assay with red blood cells; conditions: 200 μM
How it was run: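 Hemolysis expressed as percent of the Triton X signal with DMSO as zero, using OD405 of supernatant. Compounds from DMSO stocks were incubated with triple-washed human erythrocytes for 1 hour at 37° C. before centrifugation; three independent experiments.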

[6] = tested on: Staphylococcus epidermidis (ATCC 12228); experiment: MIC assay (broth microdilution, CLSI); format: cell-based; conditions: Staphylococcus epidermidis
[7] = tested on: S. aureus clinical isolate SA 138; experiment: MIC assay (broth microdilution, CLSI); conditions: Staphylococcus aureus, read-out: MIC, SA 138
[8] = tested on: MRSA-2 planktonic cells and biofilms; experiment: Calgary Biofilm Device (CBD) assay, MBC/MBEC; format: cell-based, Staphylococcus aureus
[9] = tested on: Enterococcus faecium (ATCC 700221), VRE; experiment: MIC assay (broth microdilution, CLSI); format: cell-based
[10] = tested on: MRSA BAA-1707 planktonic cells and biofilms; experiment: Calgary Biofilm Device (CBD) assay, MBC/MBEC; conditions: Table 8

Compound: Oc1c(Br)ccc2nc3ccccc3nc12 [Compound 1, 2-bromo-1-hydroxyphenazine]
- MIC against S. aureus and S. epidermidis ([1]; earlier report of the group): 6.25 μM and 1.7 μg/mL

Compound: Oc1cccc2nc3ccccc3nc12 [1-hydroxyphenazine]
- activity against staphylococcal pathogens ([1]; earlier report): inactive

Compound: CN[C@H](CC(C)C)C(=O)N[C@H]1C(=O)N[C@@H](CC(N)=O)C(=O)N[C@H]2C(=O)N[C@H]3C(=O)N[C@H](C(=O)N[C@H](C(=O)O)c4cc(O)cc(O)c4-c4cc3ccc4O)[C@H](O)c3ccc(c(Cl)c3)Oc3cc2cc(c3O[C@@H]2O[C@H](CO)[C@@H](O)[C@H](O)[C@H]2O[C@H]2C[C@](C)(N)[C@H](O)[C@H](C)O2)Oc2ccc(cc2Cl)[C@H]1O [Vancomycin, vancomycin, reference compound]
- MBC ([2]; Enterococcus, read-out: VRE 700221 MBC): > 200 µM
- VRE MBEC ([2]; Table 5, c lowest concentration tested): 150 µM
- MBC ([3]; Staphylococcus epidermidis, read-out: MRSE 35984 MBC): 3 µM (≈ 4.35 µg/mL)
- MRSE MBEC ([3]; Table 5): > 2,000 μM
- MIC [4]: 1.17 µM (≈ 1.7 µg/mL)
- % Hemolysis (200 μM) ([5]; 1 h, 37 °C): ≤1%
- % Hemolysis at 200 μM ([5]; red blood cells): <1%
- % Hemolysis at 200 μM ([5]; Table 8, human red blood cells): ≤1%
- MIC ([6]; ATCC12228, read-out: MIC, S. epidermidis 12228): 1.17 µM (≈ 1.7 µg/mL)
- MIC ([6]; ATCC12228, read-out: MIC, Staphylococcus epidermidis (ATCC 12228)): 1.17 µM (≈ 1.7 µg/mL)
- MIC [7]: 1.17 µM (≈ 1.7 µg/mL)
- MBC ([8]; Staphylococcus aureus, MRSA, read-out: MBC, MRSA-2): 5.9 µM (≈ 8.55 µg/mL)
- MBC ([8]; Staphylococcus aureus, MRSA, read-out: MRSA-2 MBC): 3 µM (≈ 4.35 µg/mL)
- MBC ([8]; Table 8, a/b 2-/4-fold range in independent experiments, read-out: MRSA-2 MBC): 3.0 µM (≈ 4.35 µg/mL)
- MIC ([9]; Enterococcus faecium, read-out: MIC, Enterococcus faecium (ATCC 700221)): > 100 µM
- MIC ([9]; Table 2B, b lowest concentration tested, read-out: MIC, Enterococcus faecium (ATCC 700221)): >100 µM
- MIC ([9]; read-out: MIC, VRE 700221): > 100 µM
- MRSA BAA-1707 MBEC [10]: > 2000 µM
